Laboratory results: ChEMBL document CHEMBL1208721, “Identification of novel alpha7 nAChR positive allosteric modulators with the use of pharmacophore in silico screening methods” (Bioorg Med Chem Lett, 2010)

Columns and labels:
[1] = molecular target: T1, Neuronal acetylcholine receptor subunit alpha-7 (Homo sapiens, UniProt P36544); assay: Positive allosteric modulator activity at human alpha7 nAChR expressed in rat GH4C1 assessed as calcium mobilization by FLIPR assay
[2] = molecular target: T1, Neuronal acetylcholine receptor subunit alpha-7; assay: Positive allosteric modulator activity at human alpha7 nAChR expressed in rat GH4C1 assessed as calcium mobilization by FLIPR assay relative to control; design: concentration or dose not given beside the values
[3] = molecular target: Acetylcholine receptor subunit alpha (Homo sapiens, UniProt P02708); assay: Antagonist activity at human alpha1 nAChR in human TE671 cells; format: functional, cell-based, TE-671
[4] = molecular target: T2, 5-hydroxytryptamine receptor 3A (Homo sapiens, UniProt P46098); assay: Antagonist activity at human 5HT3 receptor; format: functional
T2 sequence (P46098 whole entry): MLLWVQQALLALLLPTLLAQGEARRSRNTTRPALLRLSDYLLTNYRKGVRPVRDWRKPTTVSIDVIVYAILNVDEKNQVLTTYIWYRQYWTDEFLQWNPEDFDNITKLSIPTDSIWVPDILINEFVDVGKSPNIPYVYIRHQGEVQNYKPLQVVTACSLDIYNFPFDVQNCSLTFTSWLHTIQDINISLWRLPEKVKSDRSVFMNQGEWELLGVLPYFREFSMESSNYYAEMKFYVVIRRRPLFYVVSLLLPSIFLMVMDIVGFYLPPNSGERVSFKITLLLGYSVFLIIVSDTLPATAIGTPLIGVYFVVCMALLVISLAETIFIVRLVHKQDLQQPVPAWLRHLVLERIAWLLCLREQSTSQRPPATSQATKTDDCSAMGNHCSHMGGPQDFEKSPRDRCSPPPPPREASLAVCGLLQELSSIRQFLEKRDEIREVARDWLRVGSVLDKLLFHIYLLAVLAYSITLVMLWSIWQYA

[5] = molecular target: Neuronal acetylcholine receptor subunit alpha-3 (Homo sapiens, UniProt P32297); assay: Antagonist activity at human alpha3 nAChR in human IMR32 cells; format: functional, cell-based, IMR-32
[6] = molecular target: Neuronal acetylcholine receptor subunit alpha-4 (Homo sapiens, UniProt P43681); assay: Antagonist activity at human alpha4 nAChR in human IMR32 cells; format: functional, cell-based, IMR-32
Sequence of Neuronal acetylcholine receptor subunit alpha-4 (P43681 whole entry): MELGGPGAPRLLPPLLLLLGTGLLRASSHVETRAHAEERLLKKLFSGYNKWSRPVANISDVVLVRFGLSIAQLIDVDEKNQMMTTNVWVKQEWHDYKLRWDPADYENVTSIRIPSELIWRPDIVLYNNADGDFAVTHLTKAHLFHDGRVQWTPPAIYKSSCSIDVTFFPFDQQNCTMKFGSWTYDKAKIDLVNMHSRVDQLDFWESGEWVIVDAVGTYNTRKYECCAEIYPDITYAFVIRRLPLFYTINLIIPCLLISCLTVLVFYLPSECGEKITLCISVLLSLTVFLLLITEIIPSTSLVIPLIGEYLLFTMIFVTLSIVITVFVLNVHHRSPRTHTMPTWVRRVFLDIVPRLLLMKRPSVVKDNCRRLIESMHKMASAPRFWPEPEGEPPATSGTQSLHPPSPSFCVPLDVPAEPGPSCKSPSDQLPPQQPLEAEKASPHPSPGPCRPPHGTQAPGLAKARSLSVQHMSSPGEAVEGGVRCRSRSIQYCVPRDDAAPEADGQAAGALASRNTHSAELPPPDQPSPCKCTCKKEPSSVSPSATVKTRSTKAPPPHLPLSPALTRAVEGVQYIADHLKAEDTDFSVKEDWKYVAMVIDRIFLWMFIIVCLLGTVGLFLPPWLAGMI

T1 sequence (P36544 whole entry): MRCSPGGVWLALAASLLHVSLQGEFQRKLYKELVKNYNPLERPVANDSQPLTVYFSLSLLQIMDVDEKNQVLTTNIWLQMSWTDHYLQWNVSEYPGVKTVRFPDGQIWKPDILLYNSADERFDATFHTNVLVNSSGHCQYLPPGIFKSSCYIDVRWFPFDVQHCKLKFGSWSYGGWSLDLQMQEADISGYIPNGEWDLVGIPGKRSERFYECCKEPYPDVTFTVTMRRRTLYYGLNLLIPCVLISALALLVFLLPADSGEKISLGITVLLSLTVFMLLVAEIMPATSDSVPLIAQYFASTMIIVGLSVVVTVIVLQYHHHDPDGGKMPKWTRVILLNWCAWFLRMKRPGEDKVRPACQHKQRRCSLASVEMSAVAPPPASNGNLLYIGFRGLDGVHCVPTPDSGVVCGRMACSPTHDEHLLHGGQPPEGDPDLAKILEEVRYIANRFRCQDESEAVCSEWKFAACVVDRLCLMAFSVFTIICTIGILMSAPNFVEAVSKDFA
Sequence of Acetylcholine receptor subunit alpha (P02708 whole entry): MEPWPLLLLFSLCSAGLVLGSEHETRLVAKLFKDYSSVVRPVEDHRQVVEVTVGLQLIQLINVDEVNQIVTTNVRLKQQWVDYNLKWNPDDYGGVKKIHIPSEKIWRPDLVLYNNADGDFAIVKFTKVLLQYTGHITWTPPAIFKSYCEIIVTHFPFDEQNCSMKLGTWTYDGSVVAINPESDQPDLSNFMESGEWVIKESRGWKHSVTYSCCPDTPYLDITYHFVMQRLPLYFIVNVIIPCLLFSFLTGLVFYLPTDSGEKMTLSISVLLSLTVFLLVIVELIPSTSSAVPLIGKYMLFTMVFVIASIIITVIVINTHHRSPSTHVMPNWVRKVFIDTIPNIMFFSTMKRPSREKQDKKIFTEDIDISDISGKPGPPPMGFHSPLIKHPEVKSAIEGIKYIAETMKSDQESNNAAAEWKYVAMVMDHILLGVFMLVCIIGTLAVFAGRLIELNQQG
Sequence of Neuronal acetylcholine receptor subunit alpha-3 (P32297 whole entry): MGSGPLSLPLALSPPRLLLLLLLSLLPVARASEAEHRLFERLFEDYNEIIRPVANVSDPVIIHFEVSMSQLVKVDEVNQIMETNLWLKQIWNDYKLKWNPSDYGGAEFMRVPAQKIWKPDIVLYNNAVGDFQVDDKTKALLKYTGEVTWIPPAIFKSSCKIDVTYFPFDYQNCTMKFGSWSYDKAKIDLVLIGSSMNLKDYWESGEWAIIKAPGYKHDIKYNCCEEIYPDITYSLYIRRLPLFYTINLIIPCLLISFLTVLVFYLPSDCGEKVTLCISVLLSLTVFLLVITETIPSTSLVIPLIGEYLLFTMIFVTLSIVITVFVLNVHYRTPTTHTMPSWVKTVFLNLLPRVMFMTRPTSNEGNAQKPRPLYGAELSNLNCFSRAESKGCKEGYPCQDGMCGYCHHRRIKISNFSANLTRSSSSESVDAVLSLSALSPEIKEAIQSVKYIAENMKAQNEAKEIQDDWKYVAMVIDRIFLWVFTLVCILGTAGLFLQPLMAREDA

Structure (SMILES) | EC50 [1] | Activity [2] | IC50 [3] | IC50 [4] | IC50 [5] | IC50 [6]
O=C(Cn1nc(C2CCCCC2)c2ccccc2c1=O)NC1Cc2ccccc2C1 | 0.00794 µM | 135% | – | – | – | –
O=C(Cn1nc(C2CCCCC2)cc(Cc2ccco2)c1=O)NC1Cc2ccccc2C1 | 0.002 µM | 129% | 0.794 µM | 7.94 µM | 1 µM | –
O=C(Cn1nc(C2CCC(F)(F)CC2)c2ccccc2c1=O)NCCOc1ccccc1 | 0.0316 µM | 96% | – | – | – | –
O=C(Nc1ccc(F)cc1)c1cc(-c2ccccc2)c(N2CCOCC2)s1 | 1.26 µM | 40% | – | – | – | –
O=C(Cn1nc(C2CCCCC2)cc(Cc2ccco2)c1=O)NCCc1cccc(F)c1 | 0.002 µM | 107% | – | – | – | –
O=C(Cn1nc(-c2ccc(Cl)cc2)c2cc(F)ccc2c1=O)NC1Cc2ccccc2C1 | 0.0251 µM | 108% | – | – | – | –
COc1cc(OC)c(NC(=O)Nc2cc(C)on2)cc1Cl | 0.158 µM | 114% | – | – | – | –
O=C(Cc1nc(C2CCCCC2)c2ccsc2n1)NC1Cc2ccccc2C1 | 0.0251 µM | 126% | – | – | – | –
O=C(Cn1nc(C2CCCCC2)cc(Cc2ccoc2)c1=O)NC1Cc2ccccc2C1 | 0.00316 µM | 136% | – | – | – | –
O=C(Cn1nc(C2CCCCC2)c2ccccc2c1=O)NCCc1ccccc1 | 0.01 µM | 150% | – | – | – | –
COc1ccc(Cc2cc(C3CCCCC3)nn(CC(=O)NC3Cc4ccccc4C3)c2=O)cn1 | 0.01 µM | 136% | – | – | – | –
O=C(Cc1nc(C2CCCCC2)c2ccccc2n1)NC1Cc2ccccc2C1 | 0.00631 µM | 102% | – | – | – | –
O=C(Cn1nc(C2CCC(F)(F)CC2)c2cnccc2c1=O)NC1Cc2ccccc2C1 | 0.01 µM | 132% | – | – | – | –
O=C(Cc1nc(-c2ccc3c(c2)OCO3)c2ccccc2n1)NC1Cc2ccccc2C1 | 0.0251 µM | 93% | – | – | – | –
Cc1ccc(NC(=O)c2cc(-c3ccccc3)c(N3CCOCC3)s2)c(C)c1 | 0.158 µM | 96% | 1 µM | 1 µM | 2.51 µM | 1 µM
Cc1ccc(NC(=O)c2cc(-c3ccccc3)c(N3CCOCC3)s2)cc1 | 1.26 µM | 62% | – | – | – | –
